These results are taken from PubChem BioAssay (NCI).

Structures are written as SMILES.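 Each compound was tested at five concentrations against cells in 96-well plates for 48 hours. TGI: concentration producing complete growth inhibition.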

The first experiment relates to DMS 114 small cell lung. As to the kind of experiment: inhibition of tumour cell growth, NCI panel, 48 h.
For `COc1cc(/C=C/C(=O)c2sc(-n3nc(-c4ccccc4)cc3-c3ccccc3)nc2C)ccc1O`, the TGI was above 100 µM.
`CC(C)=CCCC1(C)C=Cc2c(c(C)cc3c2[nH]c2cc(O)ccc23)O1` (centres undefined) gave a TGI above 25 µM.
Compound `COc1cc(NC(C)=O)c2[nH]c3c(C)cc(NC(C)=O)c(C)c3c2c1` came in with a TGI above 100 µM.
For the compound `COc1cc(/C=C\c2ccccn2)cc(OC)c1OC`, the TGI is above 100 µM.
The same measure, in the same setting: the figure for `O=P(O)(OCC(O)O)OCC(O)O` is above 100 µM; for `CCOC(=O)CSc1ccnc(=O)[nH]1` it is above 100 µM.
Compound `COc1ccc(Br)c2c1CC(C(=O)O)CC2` (centres undefined) came in with a TGI above 100 µM.
On the same count and under the same terms, as for `C/C(=N\N)C(CN(C)C)C(c1ccccc1)c1c(O)c2ccccc2oc1=O` (centres undefined), the figure is above 100 µM; as for `c1ccc(Nc2nnc(CSc3nc(-c4ccccc4)c(-c4ccccc4)[nH]3)s2)cc1`, 81 µM.

Another experiment relates to HOP-18 NSCLC. As to the kind of experiment: inhibition of tumour cell growth, NCI panel, 48 h.
In turn, `O=C1C/C(=C/c2ccc(/C=C3/CC(=O)N(c4cccc(Br)c4)C3=O)cc2)C(=O)N1c1cccc(Br)c1` registered a TGI above 100 µM.
`CN(C(=O)C12C3C4C1C1C2C3C41I)C(C)(C)C` (centres undefined): the TGI is above 100 µM.
Compound `Cn1c(O)c(C(=O)Nc2cccs2)c(=O)[nH]c1=S` gave a TGI of 8.34 µM.
Still for that read-out and setting: the figure for `CC(=O)/C(=C\c1ccco1)C(=O)Nc1ccccc1` is above 100 µM; for `NCC1(N2CCOCC2)C2CCCC21CO` (centres undefined) it is above 100 µM.
Still for that read-out and setting: the figure for `Cc1c2ccncc2cc2c1sc1ccncc12` is above 100 µM.
On to `C=CCONC(=O)c1ccc(Cl)cc1`, for which the TGI was above 100 µM.
Compound `COc1cc(/C=C/C(=O)c2sc(-n3nc(-c4ccccc4)cc3-c3ccccc3)nc2C)ccc1O` displayed a TGI above 100 µM.
Same read-out and setting: the figure for `O=C(CCn1[nH]c(=O)c(Cl)c(Cl)c1=O)NOCCCc1ccccc1` is above 100 µM; for `CC(C)=CCCC1(C)C=Cc2c(c(C)cc3c2[nH]c2cc(O)ccc23)O1` (centres undefined) it is above 25 µM.
The same measure, in the same setting: as for `COc1cc(NC(C)=O)c2[nH]c3c(C)cc(NC(C)=O)c(C)c3c2c1`, the figure is above 100 µM; as for `COc1cc(/C=C\c2ccccn2)cc(OC)c1OC`, above 100 µM.
Consider `O=P(O)(OCC(O)O)OCC(O)O`, for which the TGI is above 100 µM.
As to `COc1ccc(Br)c2c1CC(C(=O)O)CC2` (centres undefined), the TGI was above 100 µM.
In turn, `C/C(=N\N)C(CN(C)C)C(c1ccccc1)c1c(O)c2ccccc2oc1=O` (centres undefined) registered a TGI above 100 µM.

The test system of the next experiment is XF 498 CNS. Description: inhibition of tumour cell growth, NCI panel, 48 h.
As for `O=C1C/C(=C/c2ccc(/C=C3/CC(=O)N(c4cccc(Br)c4)C3=O)cc2)C(=O)N1c1cccc(Br)c1`, the TGI was above 79 µM.
As to `CCOC(C[C@H](O)[C@H]1COC(=S)S1)OCC`, the TGI is above 100 µM.
In turn, `CCCCCCn1c(SCC)c2ccccc2c1-c1nc(F)nc(F)n1` returned a TGI above 100 µM.
For `CN(C(=O)C12C3C4C1C1C2C3C41I)C(C)(C)C` (centres undefined), the TGI was above 100 µM.
On the same count and under the same terms, as for `CC(=O)/C(=C\c1ccco1)C(=O)Nc1ccccc1`, the figure is above 100 µM.
Compound `Cc1c2ccncc2cc2c1sc1ccncc12` gave a TGI of 29.8 µM.
For `C=CCONC(=O)c1ccc(Cl)cc1`, the TGI was above 100 µM.
Compound `O=C(CCn1[nH]c(=O)c(Cl)c(Cl)c1=O)NOCCCc1ccccc1` registered a TGI above 100 µM.
Regarding `CC(C)=CCCC1(C)C=Cc2c(c(C)cc3c2[nH]c2cc(O)ccc23)O1` (centres undefined), the TGI was above 25 µM.
Still for that read-out and setting: as for `COc1cc(NC(C)=O)c2[nH]c3c(C)cc(NC(C)=O)c(C)c3c2c1`, the figure is above 100 µM.
In turn, `COc1cc(/C=C\c2ccccn2)cc(OC)c1OC` registered a TGI above 100 µM.
For `O=P(O)(OCC(O)O)OCC(O)O`, the TGI was above 100 µM.
The compound `CCOC(=O)CSc1ccnc(=O)[nH]1` had a TGI above 100 µM.
Still for that read-out and setting: the figure for `COc1ccc(Br)c2c1CC(C(=O)O)CC2` (centres undefined) is above 100 µM; for `C/C(=N\N)C(CN(C)C)C(c1ccccc1)c1c(O)c2ccccc2oc1=O` (centres undefined) it is 99.8 µM.

The test system of the next experiment is KM20L2 colon. Description: inhibition of tumour cell growth, NCI panel, 48 h.
`O=C1C/C(=C/c2ccc(/C=C3/CC(=O)N(c4cccc(Br)c4)C3=O)cc2)C(=O)N1c1cccc(Br)c1` displayed a TGI above 100 µM.
For the compound `CCOC(C[C@H](O)[C@H]1COC(=S)S1)OCC`, the TGI is above 100 µM.
In turn, `CCCCCCn1c(SCC)c2ccccc2c1-c1nc(F)nc(F)n1` displayed a TGI above 100 µM.
Compound `CN(C(=O)C12C3C4C1C1C2C3C41I)C(C)(C)C` (centres undefined) gave a TGI above 100 µM.
The same measure, in the same setting: the figure for `Cn1c(O)c(C(=O)Nc2cccs2)c(=O)[nH]c1=S` is 34.1 µM; for `CC#COP(=O)(OCC)OCC` it is above 100 µM.
`COc1ccc(/C=C(\Cl)c2ccc(OC)c(OC)c2)cc1OC`: the TGI was above 100 µM.
On the same count and under the same terms, the figure for `Cc1c2ccncc2cc2c1sc1ccncc12` is 25.7 µM; for `C=CCONC(=O)c1ccc(Cl)cc1` it is above 100 µM; for `O=C(CC1Sc2ccccc2NC1=O)Nc1cc(Cl)ccc1Cl` (centres undefined) it is above 100 µM.
The compound `COc1cc(/C=C/C(=O)c2sc(-n3nc(-c4ccccc4)cc3-c3ccccc3)nc2C)ccc1O` registered a TGI above 100 µM.
The compound `O=C(CCn1[nH]c(=O)c(Cl)c(Cl)c1=O)NOCCCc1ccccc1` yielded a TGI above 100 µM.
Take `CC(C)=CCCC1(C)C=Cc2c(c(C)cc3c2[nH]c2cc(O)ccc23)O1` (centres undefined): the TGI is above 25 µM.
Take `COc1cc(NC(C)=O)c2[nH]c3c(C)cc(NC(C)=O)c(C)c3c2c1`: the TGI is above 100 µM.
In turn, `COc1cc(/C=C\c2ccccn2)cc(OC)c1OC` had a TGI above 100 µM.
The compound `O=P(O)(OCC(O)O)OCC(O)O` showed a TGI above 100 µM.
`CCOC(=O)CSc1ccnc(=O)[nH]1` yielded a TGI above 100 µM.
As to `COc1ccc(Br)c2c1CC(C(=O)O)CC2` (centres undefined), the TGI is above 100 µM.
Still for that read-out and setting: as for `C/C(=N\N)C(CN(C)C)C(c1ccccc1)c1c(O)c2ccccc2oc1=O` (centres undefined), the figure is above 100 µM; as for `c1ccc(Nc2nnc(CSc3nc(-c4ccccc4)c(-c4ccccc4)[nH]3)s2)cc1`, 48.5 µM.

The subject of the next experiment is DLD-1 colon. As to the kind of experiment: inhibition of tumour cell growth, NCI panel, 48 h.
As to `O=C1C/C(=C/c2ccc(/C=C3/CC(=O)N(c4cccc(Br)c4)C3=O)cc2)C(=O)N1c1cccc(Br)c1`, the TGI is above 100 µM.
On to `CCCCCCn1c(SCC)c2ccccc2c1-c1nc(F)nc(F)n1`, for which the TGI was above 100 µM.
The compound `CN(C(=O)C12C3C4C1C1C2C3C41I)C(C)(C)C` (centres undefined) yielded a TGI above 100 µM.
The same measure, in the same setting: the figure for `Cn1c(O)c(C(=O)Nc2cccs2)c(=O)[nH]c1=S` is 73.9 µM; for `CC(=O)/C(=C\c1ccco1)C(=O)Nc1ccccc1` it is above 100 µM.
The compound `NCC1(N2CCOCC2)C2CCCC21CO` (centres undefined) had a TGI above 100 µM.
The same measure, in the same setting: as for `CC#COP(=O)(OCC)OCC`, the figure is above 100 µM; as for `COc1ccc(/C=C(\Cl)c2ccc(OC)c(OC)c2)cc1OC`, above 100 µM.
Still for that read-out and setting: as for `Cc1c2ccncc2cc2c1sc1ccncc12`, the figure is 15 µM.
Take `C=CCONC(=O)c1ccc(Cl)cc1`: the TGI was above 100 µM.
Regarding `O=C(CC1Sc2ccccc2NC1=O)Nc1cc(Cl)ccc1Cl` (centres undefined), the TGI is above 100 µM.
In the case of `COc1cc(/C=C/C(=O)c2sc(-n3nc(-c4ccccc4)cc3-c3ccccc3)nc2C)ccc1O`, the TGI is above 100 µM.
Compound `O=C(CCn1[nH]c(=O)c(Cl)c(Cl)c1=O)NOCCCc1ccccc1` yielded a TGI above 100 µM.
Take `CC(C)=CCCC1(C)C=Cc2c(c(C)cc3c2[nH]c2cc(O)ccc23)O1` (centres undefined): the TGI is above 25 µM.
`COc1cc(NC(C)=O)c2[nH]c3c(C)cc(NC(C)=O)c(C)c3c2c1` gave a TGI above 100 µM.
In the case of `COc1cc(/C=C\c2ccccn2)cc(OC)c1OC`, the TGI was above 100 µM.
In turn, `O=P(O)(OCC(O)O)OCC(O)O` yielded a TGI above 100 µM.
`COc1ccc(Br)c2c1CC(C(=O)O)CC2` (centres undefined) displayed a TGI above 100 µM.
The compound `C/C(=N\N)C(CN(C)C)C(c1ccccc1)c1c(O)c2ccccc2oc1=O` (centres undefined) displayed a TGI above 100 µM.
Compound `c1ccc(Nc2nnc(CSc3nc(-c4ccccc4)c(-c4ccccc4)[nH]3)s2)cc1` yielded a TGI above 100 µM.
